The target in this assay is T1, BNC1 (Homo sapiens, UniProt Q16515).
T1 construct: a 1539-bp open reading frame extending to the 3' stop codon; expressed in transfected cells; host or cells: Xenopus laevis oocytes, nuclear injection of BNC1 cDNA in pMT3
T1 sequence (Q16515 1-512 T495A): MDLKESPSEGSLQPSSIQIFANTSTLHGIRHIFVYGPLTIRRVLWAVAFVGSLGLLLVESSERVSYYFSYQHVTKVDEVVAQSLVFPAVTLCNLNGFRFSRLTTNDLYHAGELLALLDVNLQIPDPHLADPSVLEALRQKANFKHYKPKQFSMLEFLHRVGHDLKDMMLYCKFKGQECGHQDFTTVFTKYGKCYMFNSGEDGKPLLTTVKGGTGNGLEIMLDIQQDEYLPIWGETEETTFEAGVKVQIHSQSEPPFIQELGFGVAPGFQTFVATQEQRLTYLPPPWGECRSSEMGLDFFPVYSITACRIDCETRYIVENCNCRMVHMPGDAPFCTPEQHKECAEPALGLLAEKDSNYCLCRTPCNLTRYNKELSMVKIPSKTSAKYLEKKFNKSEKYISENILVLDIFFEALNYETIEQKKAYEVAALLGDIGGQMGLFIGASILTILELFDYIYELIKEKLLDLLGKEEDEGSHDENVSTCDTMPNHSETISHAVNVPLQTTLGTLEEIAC
In words: Two-electrode voltage clamp of Xenopus oocytes expressing BNC1. The format is cell-based. Conditions: for activation of BNC1 current by agonist peptide: peptide added to bathing solution at 1-30 μM. The method, then:
Expression of BNC1 in Xenopus laevis Oocytes--BNC1 was expressed in Xenopus oocytes by nuclear injection of BNC1 cDNA cloned into pMT3 (0.2-0.3 ng). Control oocytes were injected with H2 O. α-, β-, and γhENaC (αβγhENaC) were expressed as described previously. Oocytes were maintained at 18° C. in modified Barth's solution, and current was measured by two-electrode voltage clamp 1 day after injection. During voltage clamp, oocytes were bathed in 116 mM NaCl, 2 mM KCl, 0.4 mM CaCl2, 1 mM Mg Cl2, 5 mM Hepes (pH 7.4 with NaOH). To determine ionic selectivity, NaCl was replaced with LiCl or KCl. Current-voltage relationships were determined by stepping from a holding potential of -60 mV to potentials between -100 and +40 mV for 1 second. Amiloride-sensitive current was obtained by subtracting current during exposure to a maximal concentration of amiloride (100 μM) from current prior to amiloride addition. Phe-Met-Arg-Phe-NH2 (FMRF-am-ide), Phe-Leu-Phe-Gln-Pro-Gln-Arg-Phe-NH2 (F-8-F-amide), and Ala-Gly-Glu-Gly-Leu-Ser-Ser-Pro-Phe-Trp-Ser-Leu-Ala-Ala-Pro-Gln-Arg-Phe-NH2 (A-18-F-amide) were obtained from Sigma and were added to the bathing solution at 1-30 μM.
(In general: Two-electrode voltage clamp holds a large cell at a set potential and records current.)

Ends that are not written are not given here.

For `N=C(N)NC(=O)c1nc(Cl)c(N)nc1N` [amiloride], the IC50 (BNC1 expressed in Xenopus oocytes, plotted as fraction of response to 100 μM amiloride, n=4 (FIG. 8), read-out: half-maximal inhibition of Na+ current) came out at 147 ± 23 nM. For the same molecule, where the note is “BNC1 in Xenopus oocytes, holding potential -60 mV, amiloride 100 μM, n=12 (FIG. 6)”, the “inward current reversibly inhibited by amiloride (amiloride-sensitive current)” value was 14.0±2.7 nA. For the molecule `CC(C)C[C@H](NC(=O)[C@@H](N)Cc1ccccc1)C(=O)N[C@@H](Cc1ccccc1)C(=O)N[C@@H](CCC(N)=O)C(=O)N1CCC[C@H]1C(=O)N[C@@H](CCC(N)=O)C(=O)N[C@@H](CCCNC(=N)N)C(=O)N[C@@H](Cc1ccccc1)C(N)=O` [F-8-F-amide, Phe-Leu-Phe-Gln-Pro-Gln-Arg-Phe-NH2], the “activation of BNC1 current by agonist peptide” value (BNC1 in Xenopus oocytes) is on record as “not activated”. On the same count and under the same terms, next, “Ala-Gly-Glu-Gly-Leu-Ser-Ser-Pro-Phe-Trp-Ser-Leu-Ala-Ala-Pro-Gln-Arg-Phe-NH2 (AGEGLSSPFWSLAAPQRF-NH2) [A-18-F-amide, related mammalian peptide, obtained from Sigma]”: “not activated”.

These data come from US5892018A, “DNA sequences encoding a brain sodium channel protein” (priority 1997, dated 1999).
